Target: T1, Angiotensin-converting enzyme (Oryctolagus cuniculus) (UniProt P12822)
T1 sequence (whole entry): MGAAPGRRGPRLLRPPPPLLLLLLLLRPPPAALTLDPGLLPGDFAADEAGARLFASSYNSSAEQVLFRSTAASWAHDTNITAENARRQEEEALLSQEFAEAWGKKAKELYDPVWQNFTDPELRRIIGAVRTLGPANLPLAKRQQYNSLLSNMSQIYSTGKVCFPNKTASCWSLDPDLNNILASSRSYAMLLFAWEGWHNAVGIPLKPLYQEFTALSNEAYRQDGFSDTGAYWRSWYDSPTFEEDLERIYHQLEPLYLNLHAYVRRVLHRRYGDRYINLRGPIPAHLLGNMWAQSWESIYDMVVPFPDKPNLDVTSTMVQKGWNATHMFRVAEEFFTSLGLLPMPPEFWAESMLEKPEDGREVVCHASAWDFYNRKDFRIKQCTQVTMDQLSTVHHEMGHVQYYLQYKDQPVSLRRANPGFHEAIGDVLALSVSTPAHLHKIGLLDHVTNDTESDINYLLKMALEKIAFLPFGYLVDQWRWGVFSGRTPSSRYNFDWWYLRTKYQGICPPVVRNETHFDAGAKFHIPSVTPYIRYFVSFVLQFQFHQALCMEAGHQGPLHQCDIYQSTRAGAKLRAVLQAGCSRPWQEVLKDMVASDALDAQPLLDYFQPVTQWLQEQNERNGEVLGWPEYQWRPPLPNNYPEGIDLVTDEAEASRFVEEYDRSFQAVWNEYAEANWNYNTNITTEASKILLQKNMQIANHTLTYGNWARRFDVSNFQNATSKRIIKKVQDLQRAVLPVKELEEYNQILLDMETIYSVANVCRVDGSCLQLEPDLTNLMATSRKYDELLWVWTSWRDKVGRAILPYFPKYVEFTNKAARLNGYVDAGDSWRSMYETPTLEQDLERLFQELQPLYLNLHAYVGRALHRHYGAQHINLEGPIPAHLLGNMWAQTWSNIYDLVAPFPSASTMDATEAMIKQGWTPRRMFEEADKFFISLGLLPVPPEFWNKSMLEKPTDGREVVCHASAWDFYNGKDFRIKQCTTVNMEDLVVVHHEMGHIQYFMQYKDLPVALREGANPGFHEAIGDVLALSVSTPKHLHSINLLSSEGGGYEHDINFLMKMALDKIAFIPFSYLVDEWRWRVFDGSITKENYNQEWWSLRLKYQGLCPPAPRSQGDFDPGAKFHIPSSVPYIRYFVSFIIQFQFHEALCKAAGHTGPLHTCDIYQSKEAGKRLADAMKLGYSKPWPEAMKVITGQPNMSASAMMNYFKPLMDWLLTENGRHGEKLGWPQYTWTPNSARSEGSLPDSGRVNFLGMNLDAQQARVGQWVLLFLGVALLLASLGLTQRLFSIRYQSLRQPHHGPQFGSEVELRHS
Test: Inhibition of rabbit lung ACE activity relative to control
Set-up: concentration or dose not given beside the values
Settings: concentration not given here

Structure (SMILES)	inhibition [%]
NCCC[C@H](NC(=O)c1ccsc1)C(=O)N1CCC[C@H]1C(=O)O	23.7
NCCC[C@H](NC(=O)Cc1ccsc1)C(=O)N1CCC[C@H]1C(=O)O	35.6
NCCC[C@H](NC(=O)CCCc1ccsc1)C(=O)N1CCC[C@H]1C(=O)O	37.2
NCCC[C@H](NC(=O)CCc1ccsc1)C(=O)N1CCC[C@H]1C(=O)O	72.7

More lines, now with the values ahead:

inhibition [%]	Structure (SMILES)
38.5	NCCC[C@H](NC(=O)Cc1c[nH]c2ccccc12)C(=O)N1CCC[C@H]1C(=O)O
33.8	NCCC[C@H](NC(=O)CCCc1c[nH]c2ccccc12)C(=O)N1CCC[C@H]1C(=O)O
27.7	NCCC[C@H](NC(=O)c1c[nH]c2ccccc12)C(=O)N1CCC[C@H]1C(=O)O
59.7	NCCC[C@H](NC(=O)CCc1c[nH]c2ccccc12)C(=O)N1CCC[C@H]1C(=O)O
